The text below walks through data of patent EP4678643A1, “KRAS INHIBITOR COMPOUND, PHARMACEUTICAL COMPOSITION THEREOF, AND USE THEREOF” (Sunshine Lake Pharma Co., Ltd., priority 2023, dated 2024).

Read-outs that look alike come from different tables or passages of the source.

In series [1] the test system is pERK in H358 cells (KRAS p.G12C). Description: Inhibitory effect on intracellular pERK by In-Cell Western assay, H358. The series is classed as cell-based. The note with it: Homo sapiens, NCI-H358, pERK inhibition, compound incubation 3 h. The method, then: (§1) 1. Determination of Inhibitory Effect on Intracellular pERK by In-Cell Western Assay
(§2) (1) On the first day, the following cells were revived and cultured with the corresponding culture medium and incubated at 37 °C, 5% CO2 until confluence.
(§3) (2) On the third day, the culture medium was removed, the cells were rinsed once with DPBS, 2 mL of TrypLE™ trypsin was added for digestion, and the cells were placed at room temperature until the cells detached. (3) 5 mL fresh culture medium was added to resuspend cells to terminate the digestion, and the cells were gently pipetted and centrifuged at 1000 rpm for 5 minutes at room temperature. (4) The supernatant was removed, and 5 mL fresh culture medium was added to resuspend the cells and count cells. (5) The cells were plated in a 384-well plate with appropriate cell concentration by adjusting with complete culture medium and incubated at 37 °C, 5% CO2 for overnight. (6) 200 nL of the prepared serial dilution compound (DMSO final concentration was 0.5%) was added and incubated at 37 °C, CO2 for 3 h (HPAC cell lines for 1 h). (7) The cells were fixed. (8) The cells were washed twice with PBS. (9) The blocking solution was added and the cells were incubated at room temperature for 1 h. (10) The blocking solution was removed, and the primary antibody (phospho-ERK Rabbit mAb + GAPDH (D4C6R) Mouse mAb) was added and the cells were incubated at 4 °C for overnight. (11) The cells were washed twice with PBST (PBS + 0.05% Tween 20) for 2 minutes each time. (12) PBST was removed and secondary antibody (IRDye 800CW Goat anti-Rabbit IgG (H+L) + IRDye 680RD Goat anti Mouse IgG (H+L)) was added and incubated away from light at room temperature. (14) Secondary antibody was discarded and the cell was washed twice with PBST, 2 minutes each time. (15) 384-well plate was inverted and centrifuged at 1000 rpm at room temperature for 1 minute, and the 384-well plate was scanned with Odyssey CLx. (16) Data analysis: • a) Assay stability check was peformed by using DMSO and reference control data: [formula] [formula] • b) nonlinear fitting of Compound IC50: Y = Bottom + (Top−Bottom)/(1+10^(∧)((LogIC50−X)×HillSlope)). [formula]

Series [2] deals with pERK in HCT 116 cells (KRAS p.G13D). The series is described as follows: Inhibitory effect on intracellular pERK by In-Cell Western assay, HCT 116. Format: cell-based. The note with it: Homo sapiens, pERK inhibition, compound incubation 3 h. The method, then:
as §1, §2, §3

For series [3], the system named is pERK in A549 cells (KRAS p.G12S). Description: Inhibitory effect on intracellular pERK by In-Cell Western assay, A549. The note with it: Homo sapiens, pERK inhibition, compound incubation 3 h. The series is classed as cell-based. The method, then: as §1, §2, §3
Series [4] concerns pERK in AGS cells (KRAS G12D). Description: Inhibitory effect on intracellular pERK by In-Cell Western assay, AGS. Format: cell-based. The conditions noted are these: pERK inhibition, compound incubation 3 h, read-out: AGS, IC50 (nM) KRAS p.G12D. The method, then:
as §1, §2
as §3, with “CLx.” for “CLx. (16) Data analysis: • a) Assay stability check was peformed by using DMSO and reference control data: [formula] [formula] • b) nonlinear fitting of Compound IC50: Y = Bottom + (Top−Bottom)/(1+10^(∧)((LogIC50−X)×HillSlope)). [formula]”

For series [5], the system named is pERK in MKN1 cells (KRAS WTdep). The series is described as follows: Inhibitory effect on intracellular pERK by In-Cell Western assay, MKN1. The series is classed as cell-based. The conditions noted are these: Homo sapiens, MKN-1, pERK inhibition, compound incubation 3 h. The method, then: as §1, §2, §3
Series [6] in a line: Pharmacokinetic evaluation by intravenous injection or oral gavage in mice.
Procedure: Pharmacokinetic evaluation of the compounds of the present invention by intravenous injection or oral gavage in mice
The inventors conducted a pharmacokinetic evaluation of the compounds of this invention in mice.
The compounds of the present invention were administered to test animals in the form of a solution of 5% DMSO + 30% PEG400 + 65% saline, 10% DMSO + 10% Kolliphor HS15 + 80% Saline, 10% DMSO + 89% (25% SBE-B-CD) + (2% HCl), 20% PEG400 + 80% sterile water for injection, or 10% DMA + 10% HS15 + 30% PEG400 + 50% sterile water for injection. The animals were fasted for 12 hours before administration and had free access to water. For the intravenous administration group, the dose was 2 mg/kg/day, qd. Venous blood samples (approximately 0.15 mL) were collected at the following time points after administration: 0.083, 0.25, 0.5, 1.0, 2.0, 5.0, 7.0 and 24 hours. EDTA-K2 was pre-added to the blood collection tube as an anticoagulant. Blood samples were centrifuged at 12,000 rpm for 2 minutes, and plasma was collected and stored at -20°C or -70°C. For the intravenous administration group, the dose was 5 mg/kg/day, qd. Venous blood samples (approximately 0.15 mL) were collected at the following time points after administration: 0.25, 0.5, 1.0, 2.0, 5.0, 7.0 and 24 hours. EDTA-K2 was pre-added to the blood collection tube as an anticoagulant. Blood samples were centrifuged at 12,000 rpm for 2 minutes, and plasma was collected and stored at -20°C or -70°C.
The collected plasma samples were processed (frozen plasma was thawed at room temperature and vortexed for 15 seconds. 10-20 µL of plasma was added to 120-150 µL of acetonitrile solution containing the internal standard and vortexed for 5 minutes. The sample was centrifuged at 4,000 rpm for 5 minutes. 100 µL of the supernatant was added to 120-150 µL of methanol/water (v/v = 1/1) and mixed). The concentrations of the compounds in the plasma were analyzed by LC-MS/MS.

Usually IC50 stands for the concentration at which inhibition is half-maximal. In the case of `C#Cc1c(F)ccc2cc(O)cc(-c3nc(C#CC)c4c(N5CCOCC(F)(F)C5)nc(OC[C@@]56CCCN5C[C@H](F)C6)nc4c3F)c12` [Compound 38], the IC50 came out at 0.4 nM in series [1]; 5.4 nM in series [2]; 1.2 nM in series [3]; 1.6 nM in series [4] (Homo sapiens, AGS, 3 h); 1.41 nM in series [5].

Turning to `CC#Cc1nc(-c2cc(O)cc3cccc(Cl)c23)c(F)c2nc(OC[C@@]34CCCN3C[C@H](F)C4)nc(N3CCCOCC3)c12` [Compound 23], in series [4] (Homo sapiens, AGS, 3 h), the IC50 was 6.1 nM.

On to `C#Cc1c(F)ccc2cc(O)cc(-c3nc(C#CC)c4c(N5CCCCC(F)(F)C5)nc(OC[C@@]56CCCN5C[C@H](F)C6)nc4c3F)c12` [Compound 27], for which the IC50 in series [1] came to 2 nM; in series [2] it was 19.5 nM; in series [3], 5.1 nM; in series [4] (Homo sapiens, AGS, 3 h), 5.2 nM; in series [5], 4.5 nM.

Turning to `C#Cc1c(F)ccc2cc(O)cc(-c3nc(C#CCC)c4c(N5CCCCCC5)nc(OC[C@@]56CCCN5C[C@H](F)C6)nc4c3F)c12` [Compound 30], in series [4] (Homo sapiens, AGS, 3 h), the IC50 is 6.8 nM.

Consider `CCC#Cc1nc(-c2cc(O)cc3ccc(F)c(CC)c23)c(F)c2nc(OC[C@@]34CCCN3C[C@H](F)C4)nc(N3CCCCC(=O)C3)c12` [Compound 33], for which the IC50 in series [4] (Homo sapiens, AGS, 3 h) came to 4.1 nM.

Turning to `C#Cc1nc(-c2cc(O)cc3ccc(F)c(CC)c23)c(F)c2nc(OC[C@@]34CCCN3C[C@H](F)C4)nc(N3CCCOCC3)c12` [Compound 8], in series [4] (Homo sapiens, AGS, 3 h), the IC50 stood at 7.1 nM.

`C#Cc1c(F)ccc2cc(O)cc(-c3nc(C#CC)c4c(N5CCCOCC5)nc(OCC56CCCN5CCC6)nc4c3F)c12` [Compound 11]: the IC50 turned out to be 2 nM in series [1]; 28.6 nM in series [2]; 20.2 nM in series [3]; 2.6 nM in series [4] (Homo sapiens, AGS, 3 h); 7.4 nM in series [5].

Regarding `C#Cc1c(F)ccc2cc(O)cc(-c3nc(C#CC)c4c(N5CCCCCC5)nc(OC[C@@]56CCCN5C[C@H](F)C6)nc4c3F)c12` [Compound 29], the IC50 was found to be 2.2 nM in series [1]; 15.2 nM in series [2]; 6.2 nM in series [3]; 1.4 nM in series [4] (Homo sapiens, AGS, 3 h); 3.6 nM in series [5].

In the case of `C#Cc1c(F)ccc2cc(O)cc(-c3nc(C#CC)c4c(N5CCCOCC5)nc(OCC56CC(=C)CN5CC(=C)C6)nc4c3F)c12` [Compound 14], the 50% inhibitory concentration (IC50) in series [4] (Homo sapiens, AGS, 3 h) amounted to 1.2 nM.

For the molecule `C#Cc1c(F)ccc2cc(O)cc(-c3nc(C#C)c4c(N5CCCOCC5)nc(OC[C@@]56CCCN5C[C@H](F)C6)nc4c3F)c12` [Compound 7], the IC50 in series [1] came out at 1.3 nM; in series [2] it was 11.6 nM; in series [3], 5.7 nM; in series [4] (Homo sapiens, AGS, 3 h), 0.6 nM; in series [5], 3.3 nM.

As to `C#Cc1c(F)ccc2cc(O)cc(-c3nc(C#CC)c4c(N5CCCOCC5)nc(OCC56CCCN5CC(F)C6)nc4c3F)c12` (stereo not drawn) [Compound 17], in series [4], the IC50 was 0.8 nM.

For the molecule `C#Cc1c(F)ccc2cc(O)cc(-c3nc(C#CC)c4c(N5CCCOCC5)nc(OCC5(CN6CCOCC6)CC5)nc4c3F)c12` [Compound 19], the IC50 in series [4] (Homo sapiens, AGS, 3 h) came to 6.4 nM.

In the case of `C#Cc1nc(-c2cc(O)cc3cccc(Cl)c23)c(F)c2nc(OC[C@@]34CCCN3C[C@H](F)C4)nc(N3CCCOCC3)c12` [Compound 9], the IC50 in series [4] (Homo sapiens, AGS, 3 h) stood at 17.2 nM.

`CC#Cc1nc(-c2cc(O)cc3ccc(F)c(CC)c23)c(F)c2nc(OCC34CCCN3CCC4)nc(N3CCCCC(=O)C3)c12` [Compound 35]: the concentration for half-maximal inhibition (IC50) in series [4] (Homo sapiens, AGS, 3 h) turned out to be 4.4 nM.

As a reminder, the AUC(0-inf) is the area under the concentration-time curve extrapolated to infinity. As a reminder, the AUC(0-t) is exposure summed from dosing to a finite time, without extrapolation to infinity. Low readings indicate less exposure, high ones more exposure. As usually defined, the Cmax is the maximum level reached in the sampled fluid or tissue. Broadly, the MRT last is a mean duration of stay, worked out from the concentration-time curve. By Tmax is commonly meant the time at which the peak concentration occurs. The half-life is the time in which the quantity being followed falls by half. A higher half-life goes with slow loss. In series [1], `C#Cc1c(F)ccc2cc(O)cc(-c3nc(C#CC)c4c(N5CCCCC(F)C5)nc(OC[C@@]56CCCN5C[C@H](F)C6)nc4c3F)c12` (stereo partly drawn) [Compound 25] showed an IC50 of 0.8 nM. For the same molecule, the midpoint of inhibition in series [2], the IC50, lay at 7.9 nM. The molecule further gave an IC50 in series [3] of 2.3 nM. Further, the “F_AUCT NF” value in series [6] (mice, 5 mg/kg/day ig administration versus 2 mg/kg/day iv) is 23%. In series [6] (mouse, plasma, iv, 2 mg/kg/day), this molecule came in with an AUC(0-inf) of 10800 ng·h/mL, an AUC(0-t) of 10600 ng·h/mL, a Cmax of 9950 ng/mL and an MRT last of 1.3 h. Also, in series [6] (mouse, plasma, iv, 2 mg/kg/day), the Tmax was found to be 0.083 h, the clearance stood at 3.2 mL/min/kg and the half-life is 1.2 h. In series [6] (mouse, plasma, po, 5 mg/kg/day), this molecule came in with an AUC(0-inf) of 6140 ng·h/mL, an exposure AUC(0-t) of 5960 ng·h/mL, a Cmax of 2660 ng/mL and a mean residence time MRT last of 1.7 h. Moreover, in series [6] (mouse, plasma, po, 5 mg/kg/day), the Tmax is 0.42 h and the half-life is 1.3 h. Also, the “pharmacokinetic properties in mice” value in series [6] (result in words) is listed as “good pharmacokinetic properties”. For the same molecule, in series [4] (Homo sapiens, AGS), the half-maximal inhibitory concentration (IC50) turned out to be 0.8 nM. The midpoint of inhibition in series [5], the IC50, lay at 3 nM.

Take `CC#Cc1nc(-c2cc(O)cc3cccc(F)c23)c(F)c2nc(OC[C@@]34CCCN3C[C@H](F)C4)nc(N3CCCOCC3)c12` [Compound 24]: the 50% inhibitory concentration (IC50) in series [4] (Homo sapiens, AGS) was 5.4 nM.

For `C#Cc1c(F)ccc2cc(O)cc(-c3nc(C#CC)c4c(N5CCCOCC5)nc(OC[C@@H]5C[C@@H](F)CN5C)nc4c3F)c12` [Compound 16], the IC50 in series [4] (Homo sapiens, AGS, 3 h) was found to be 8.1 nM.

In the case of `C#Cc1c(F)ccc2cc(O)cc(-c3nc(C#CC)c4c(N5CCCOCC5)nc(OCC56CCCN5CC(F)(F)C6)nc4c3F)c12` (stereo not drawn) [Compound 15], in series [4] (Homo sapiens, AGS, 3 h), the 50% inhibitory concentration (IC50) stood at 15 nM.

Take `C#Cc1c(F)ccc2cc(O)cc(-c3nc(C#C)c4c(N5CCCOCC5)nc(OCC56CC(=C)CN5CC(=C)C6)nc4c3F)c12` [Compound 10]: the IC50 in series [1] came to 0.7 nM; in series [2], 6.2 nM; in series [3], 1.4 nM; in series [4] (Homo sapiens, AGS, 3 h) it was 0.8 nM; in series [5], 1.6 nM.

As for `CCC#Cc1nc(-c2cc(O)cc3ccc(F)c(CC)c23)c(F)c2nc(OC[C@@]34CCCN3C[C@H](F)C4)nc(N3CCCOCC3)c12` [Compound 4], in series [4] (Homo sapiens, AGS, 3 h), the IC50 was 7.5 nM.

For `C#Cc1c(F)ccc2cc(O)cc(-c3nc(C#CCOC4CCC4)c4c(N5CCCOCC5)nc(OC[C@@]56CCCN5C[C@H](F)C6)nc4c3F)c12` [Compound 5], the IC50 in series [4] (Homo sapiens, AGS, 3 h) stood at 8.6 nM.

Turning to `C#Cc1c(F)ccc2cc(O)cc(-c3nc(C#CC)c4c(N5CCCOCC5)nc(OC[C@@H]5CCCN5C)nc4c3F)c12` [Compound 12], the IC50 in series [4] (Homo sapiens, AGS, 3 h) was 5.8 nM.

Turning to `C#Cc1c(F)ccc2cc(N)cc(-c3nc(C#CC)c4c(N5CCCOCC5)nc(OC[C@@]56CCCN5C[C@H](F)C6)nc4c3F)c12` [Compound 22], the IC50 in series [4] (Homo sapiens, AGS, 3 h) amounted to 2.8 nM.
